pIC50, pKi: −log10 of the molar value. Like-named read-outs stand apart in the source and are kept apart here.
Experiments:
memapsin 2 = memapsin 2 (Homo sapiens, UniProt P56817); assay: Inhibition of memapsin 2 beta-secretase activity (fluorogenic substrate FS-2); type: biochemical; settings: memapsin 2, pH 4, 37° C., read-out: M2Ki
Procedure, shortened: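 Kinetic fluorogenic assay: hydrolysis of the MCA/DNP-labelled APP Swedish-variant peptide FS-2 monitored as fluorescence rise at 37° C, pH 4, after 20 min enzyme–compound preincubation. Relative rates fitted with a tight-binding inhibitor model.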

[1] = tested on: Aβ production in Chinese hamster ovary cells that over-express human APP695 with the London and Swedish mutations; assay: Cellular Aβ IC50 determination (Aβ40 sandwich ELISA); type: cell-based; settings: Cricetulus griseus
Description: The potency of compounds against memapsin 2 activity was determined in a cellular assay of Aβ production. […] Chinese hamster ovary cells that over-express human APP695 with the London and Swedish mutations were seeded in multi-well plates at 10% confluency. Compounds are dissolved in DMSO to concentrations near 1 mM, and diluted into culture media to a final concentration near 4 μM (final 0.4% DMSO). […] Aliquots were removed and assayed for Aβ40 content using a sandwich ELISA (BioSource International). Amount of Aβ40 over the range of concentration of compounds, relative to control incubations, were fit to a 4-parameter IC50 model.

[2] = cellular Aβ production, read-out: IC50

memapsin 2, sequence (P56817 46-501): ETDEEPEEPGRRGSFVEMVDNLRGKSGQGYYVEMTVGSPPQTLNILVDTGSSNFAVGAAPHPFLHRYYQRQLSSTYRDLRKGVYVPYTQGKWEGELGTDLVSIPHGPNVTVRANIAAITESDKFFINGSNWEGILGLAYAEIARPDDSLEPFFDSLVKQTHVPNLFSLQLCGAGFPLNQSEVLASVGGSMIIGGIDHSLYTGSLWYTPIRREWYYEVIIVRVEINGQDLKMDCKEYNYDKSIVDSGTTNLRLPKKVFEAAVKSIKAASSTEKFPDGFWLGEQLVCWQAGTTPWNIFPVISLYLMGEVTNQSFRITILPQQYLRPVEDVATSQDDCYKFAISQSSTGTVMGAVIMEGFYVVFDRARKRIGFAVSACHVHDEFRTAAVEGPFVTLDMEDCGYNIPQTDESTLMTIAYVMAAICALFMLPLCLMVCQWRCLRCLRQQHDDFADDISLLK

Row | pKi (memapsin 2; fluorogenic substrate FS-2) | pIC50 [1, 2] | pKi (memapsin 2; 20 minutes pre-incubation) | SMILES | pIC50 [1]
1 | > 6.52 | > 6.00 |  | Cc1csc(CN(C)C(=O)c2cc(C(=O)N[C@@H](Cc3ccccc3)[C@H](O)CNCc3cncc(C(C)C)c3)cc(-c3ccco3)c2)n1 [Compound 252, 5-(furan-2-yl)-N1-((2S,3R)-3-hydroxy-4-((5-isopropylpyridin-3-yl)methylamino)-1-phenylbutan-2-yl)-N3-methyl-N3-((4-methylthiazol-2-yl)methyl)isophthalamide] | 
2 | > 6.52 | > 6.00 |  | Cc1csc(CN(C)C(=O)c2cccc(C(=O)N[C@@H](Cc3ccccc3)[C@H](O)CNCc3cc(C#N)cc(C(C)C)c3)c2)n1 [Compound 248, N1-((2S,3R)-4-(3-cyano-5-isopropylbenzylamino)-3-hydroxy-1-phenylbutan-2-yl)-N3-methyl-N3-((4-methylthiazol-2-yl)methyl)isophthalamide] | 
3 |  | > 6.00 | > 6.52 | COc1cc(C(=O)NCc2nc(C)cs2)cc(C(=O)N[C@@H](Cc2ccccc2)[C@H](O)CNCc2ccnc(C(C)C)c2)c1 [Compound 83, N1-((2S,3R)-3-hydroxy-4-((2-isopropylpyridin-4-yl)methylamino)-1-phenylbutan-2-yl)-5-methoxy-N3-((4-methylthiazol-2-yl)methyl)isophthalamide] | 
4 | < 6.30 | < 5.30 |  | Cc1csc(CN(C)C(=O)c2ccc(C)c(C(=O)N[C@@H](Cc3ccccc3)[C@H](O)CNCc3cncc(C(C)C)c3)c2)n1 [Compound 249, N3-((2S,3R)-3-hydroxy-4-((5-isopropylpyridin-3-yl)methylamino)-1-phenylbutan-2-yl)-N1,4-dimethyl-N1-((4-methylthiazol-2-yl)methyl)isophthalamide] | 
5 | > 6.52 | > 6.00 |  | Cc1csc(CN(C)C(=O)c2cc(C(=O)N[C@@H](Cc3ccccc3)[C@H](O)CNCc3cncc(C(C)C)c3)cc(-c3cnccn3)c2)n1 [Compound 214, N1-((2S,3R)-3-hydroxy-4-((5-isopropylpyridin-3-yl)methylamino)-1-phenylbutan-2-yl)-N3-methyl-N3-((4-methylthiazol-2-yl)methyl)-5-(pyrazin-2-yl)isophthalamide] | 
6 |  | > 6.00 | > 6.52 | COc1cccc(CNC[C@@H](O)[C@H](Cc2ccccc2)NC(=O)c2cc(F)cc(C(=O)N(C)Cc3nc(C)cs3)c2)c1 [Compound 4, 5-fluoro-N1-((2S,3R)-3-hydroxy-4-(3-methoxybenzylamino)-1-phenylbutan-2-yl)-N3-methyl-N3-((4-methylthiazol-2-yl)methyl)isophthalamide] | 
7 | > 6.52 | > 6.00 |  | Cc1csc(CN(C)C(=O)c2cc(C(=O)N[C@@H](Cc3ccccc3)[C@H](O)CNCc3cncc(C(C)C)c3)cc(C(C)O)c2)n1 (stereo partly drawn) [Compound 223, N1-((2S,3R)-3-hydroxy-4-((5-isopropylpyridin-3-yl)methylamino)-1-phenylbutan-2-yl)-5-(1-hydroxyethyl)-N3-methyl-N3-((4-methylthiazol-2-yl)methyl)isophthalamide] | 
8 |  | > 6.00 | > 6.52 | Cc1csc(CN(C)C(=O)c2cccc(C(=O)N[C@@H](Cc3ccccc3)[C@H](O)CNCc3cc(F)cc(C(F)(F)F)c3)c2)n1 [Compound 28, N1-((2S,3R)-4-(3-fluoro-5-(trifluoromethyl)benzylamino)-3-hydroxy-1-phenylbutan-2-yl)-N3-methyl-N3-((4-methylthiazol-2-yl)methyl)isophthalamide] | 
9 | > 6.52 | > 6.00 |  | Cc1csc(CN(C)C(=O)c2cc(C(=O)N[C@@H](Cc3ccccc3)[C@H](O)CNCc3cccc(C(F)(F)F)c3)cc(-c3cnccn3)c2)n1 [Compound 222, N1-((2S,3R)-3-hydroxy-1-phenyl-4-(3-(trifluoromethyl)benzylamino)butan-2-yl)-N3-methyl-N3-((4-methylthiazol-2-yl)methyl)-5-(pyrazin-2-yl)isophthalamide] | 
10 |  | > 6.00 | > 6.52 | COC(=O)c1cc(CNC[C@@H](O)[C@H](Cc2ccccc2)NC(=O)c2cccc(C(=O)N(C)Cc3nc(C)cs3)c2)cc(OC)c1 [Compound 54, methyl 3-(((2R,3S)-2-hydroxy-3-(3-(methyl((4-methylthiazol-2-yl)methyl)carbamoyl)benzamido)-4-phenylbutylamino)methyl)-5-methoxybenzoate] | 
11 |  | > 6.00 | > 6.52 | Cc1csc(CN(C)C(=O)c2cccc(C(=O)N[C@@H](Cc3ccccc3)[C@H](O)CNCc3cc(N(C)C)cc(N(C)C)c3)c2)n1 [Compound 185, N1-((2S,3R)-4-(3,5-bis(dimethylamino)benzylamino)-3-hydroxy-1-phenylbutan-2-yl)-N3-methyl-N3-((4-methylthiazol-2-yl)methyl)isophthalamide] | 
12 |  | > 6.00 | > 6.52 | Cc1csc(CN(C)C(=O)c2cccc(C(=O)N[C@@H](Cc3ccccc3)[C@H](O)CNCc3cccc(C(C)(C)C)c3O)c2)n1 [Compound 77, N1-((2S,3R)-4-(3-tert-butyl-2-hydroxybenzylamino)-3-hydroxy-1-phenylbutan-2-yl)-N3-methyl-N3-((4-methylthiazol-2-yl)methyl)isophthalamide] | 

More lines, now with the values behind:

Row | SMILES | pKi (memapsin 2; fluorogenic substrate FS-2) | pIC50 [1, 2] | pKi (memapsin 2; 20 minutes pre-incubation) | pIC50 [1]
13 | Cc1csc(CN(C)C(=O)c2cccc(C(=O)N[C@@H](Cc3ccccc3)[C@H](O)CNCc3cc(C(C)C)cc(S(=O)(=O)C(C)C)c3)c2)n1 [Compound 229, N1-((2S,3R)-3-hydroxy-4-(3-isopropyl-5-(isopropylsulfonyl)benzylamino)-1-phenylbutan-2-yl)-N3-methyl-N3-((4-methylthiazol-2-yl)methyl)isophthalamide] | > 6.52 | < 5.30 |  | 
14 | Cc1csc(CN(C)C(=O)c2cc(C(=O)N[C@@H](Cc3ccccc3)[C@H](O)CNCc3cc(OC(=O)N(C)C)cc(C(C)C)c3)cc(N(C)C)c2)n1 [Compound 209, 3-(((2R,3S)-3-(3-(dimethylamino)-5-(methyl((4-methylthiazol-2-yl)methyl)carbamoyl)benzamido)-2-hydroxy-4-phenylbutylamino)methyl)-5-isopropylphenyl dimethylcarbamate] |  |  | > 6.52 | > 6.00
15 | Cc1csc(CN(C)C(=O)c2cc(C(=O)N[C@@H](Cc3ccccc3)[C@H](O)CNCc3cncc(C(C)C)c3)cc(-c3ccc(F)nc3)c2)n1 [Compound 259, 5-(6-fluoropyridin-3-yl)-N1-((2S,3R)-3-hydroxy-4-((5-isopropylpyridin-3-yl)methylamino)-1-phenylbutan-2-yl)-N3-methyl-N3-((4-methylthiazol-2-yl)methyl)isophthalamide] | > 6.52 | > 6.00 |  | 
16 | Cc1cc(C(=O)N[C@@H](Cc2ccccc2)[C@H](O)CNCc2cccc(C(F)(F)F)c2)cc(C(=O)N(C)Cc2nc(C)cs2)c1 [Compound 232, N1-((2S,3R)-3-hydroxy-1-phenyl-4-(3-(trifluoromethyl)benzylamino)butan-2-yl)-N3,5-dimethyl-N3-((4-methylthiazol-2-yl)methyl)isophthalamide] | > 6.52 | > 6.00 |  | 
17 | COC(=O)Nc1cc(CNC[C@@H](O)[C@H](Cc2ccccc2)NC(=O)c2cccc(C(=O)N(C)Cc3nc(C)cs3)c2)cc(C(C)C)c1 [Compound 202, methyl 3-(((2R,3S)-2-hydroxy-3-(3-(methyl((4-methylthiazol-2-yl)methyl)carbamoyl)benzamido)-4-phenylbutylamino)methyl)-5-isopropylphenylcarbamate] |  | > 6.00 | > 6.52 | 
18 | Cc1nc(CN(C)C(=O)c2cccc(C(=O)N[C@@H](Cc3ccccc3)[C@H](O)CNCc3cncc(C(C)C)c3)c2)no1 [Compound 240, N1-((2S,3R)-3-hydroxy-4-((5-isopropylpyridin-3-yl)methylamino)-1-phenylbutan-2-yl)-N3-methyl-N3-((5-methyl-1,2,4-oxadiazol-3-yl)methyl)isophthalamide] | 6.30 to 6.52 | 5.30 to 6.00 |  | 
19 | CC(=O)c1cncc(CNC[C@@H](O)[C@H](Cc2ccccc2)NC(=O)c2cccc(C(=O)N(C)Cc3nc(C)cs3)c2)c1 [Compound 264, N1-((2S,3R)-4-((5-acetylpyridin-3-yl)methylamino)-3-hydroxy-1-phenylbutan-2-yl)-N3-methyl-N3-((4-methylthiazol-2-yl)methyl)isophthalamide] | > 6.52 | > 6.00 |  | 
20 | Cc1csc(CN(C)C(=O)c2cc(C(=O)N[C@@H](Cc3ccccc3)[C@H](O)CNCc3cncc(C(C)(C)F)c3)cc(-n3cccc3)c2)n1 [Compound 250, N1-((2S,3R)-4-((5-(2-fluoropropan-2-yl)pyridin-3-yl)methylamino)-3-hydroxy-1-phenylbutan-2-yl)-N3-methyl-N3-((4-methylthiazol-2-yl)methyl)-5-(1H-pyrrol-1-yl)isophthalamide] | > 6.52 | > 6.00 |  | 
21 | Cc1csc(CN(C)C(=O)c2cc(C(=O)N[C@@H](Cc3ccccc3)[C@H](O)CNCc3cccc(C(F)(F)F)c3)cc(C(C)C)c2)n1 [Compound 273, N1-((2S,3R)-3-hydroxy-1-phenyl-4-(3-(trifluoromethyl)benzylamino)butan-2-yl)-5-isopropyl-N3-methyl-N3-((4-methylthiazol-2-yl)methyl)isophthalamide] | > 6.52 | > 6.00 |  | 
22 | Cc1csc(CN(C)C(=O)c2cccc(C(=O)N[C@@H](Cc3ccccc3)[C@H](O)CNCc3cc(OCc4ccccc4)cc(C(C)C)c3)c2)n1 [Compound 116, N1-((2S,3R)-4-(3-(benzyloxy)-5-isopropylbenzylamino)-3-hydroxy-1-phenylbutan-2-yl)-N3-methyl-N3-((4-methylthiazol-2-yl)methyl)isophthalamide] |  | > 6.00 | > 6.52 | 
